From PubChem BioAssay AID248 (DTP/NCI, 2004)
Toxic doses and inconclusive results are not listed. Cut-off read from the data, not from the text of the source: active = T/C of 150% or more; inactive = T/C below 125%.

System: L1210 leukemia ip in BDF1 mice, survival T/C
Assay: NCI In Vivo Anticancer Drug Screen. Data for tumor model L1210 Leukemia (intraperitoneal) in B6D2F1 (BDF1) mice
Conditions: endpoint: mean survival time, higher = longer survival
Procedure, shortened: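 In this screen, tumor-bearing mice given compound are compared to those given vehicle, and their survival values are reported as a treated-to-control quotient.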

[1] = dose: 100.0 mg/kg/injection, schedule: Q01DX009 (ip), vehicle: saline with Tween-80
[2] = dose: 200.0 mg/kg/injection, schedule: Q01DX009 (ip), vehicle: saline with Tween-80
[3] = dose: 400.0 mg/kg/injection, schedule: Q01DX009 (ip), vehicle: saline with Tween-80
[4] = dose: 100.0 mg/kg/injection, schedule: Q04DX003 (ip), vehicle: saline with Tween-80
[5] = dose: 200.0 mg/kg/injection, schedule: Q04DX003 (ip), vehicle: saline with Tween-80
[6] = dose: 400.0 mg/kg/injection, schedule: Q04DX003 (ip), vehicle: saline with Tween-80
[7] = dose: 100.0 mg/kg/injection, schedule: Q01DX009 (ip), vehicle: saline
[8] = dose: 200.0 mg/kg/injection, schedule: Q01DX009 (ip), vehicle: saline

Measured: T/C

CCCCOP(=O)(OCCCC)O/C(C)=C(\C)OP(=O)(OCCCC)OCCCC
inactive: dose: 87.5 mg/kg/injection, schedule: Q01DX009 (ip), vehicle: carboxymethylcellulose (CMC) 92 % of control | dose: 175.0 mg/kg/injection, schedule: Q01DX009 (ip), vehicle: carboxymethylcellulose (CMC) 98 % of control

CC(Br)C(=O)NC(C)C(=O)O (centres undefined)
inactive: [1] 89 % of control | [2] 86 % of control | [3] 91 % of control

CCC(C(O)c1cccs1)C(O)(C(F)(F)F)C(F)(F)F (centres undefined)
inactive: [1] 95 % of control | [4] 95 % of control | [2] 116 % of control | [5] 95 % of control | [3] 97 % of control | [6] 93 % of control

O=C(Nc1ccc([N+](=O)[O-])cc1O)c1ccccc1
inactive: [4] 92 % of control | [5] 92 % of control

COc1ccc(C=C2c3ccccc3-c3ccccc32)cc1
inactive: dose: 100.0 mg/kg/injection, schedule: Q04DX003 (ip), vehicle: saline sonified 95 % of control | dose: 200.0 mg/kg/injection, schedule: Q04DX003 (ip), vehicle: saline sonified 100 % of control | dose: 400.0 mg/kg/injection, schedule: Q04DX003 (ip), vehicle: saline sonified 94 % of control

COc1ccc(C)cc1NC(=S)NC(=O)c1cc([N+](=O)[O-])cc([N+](=O)[O-])c1
inactive: dose: 100.0 mg/kg/injection, schedule: Q01DX009 (ip), vehicle: Klucel (hydroxypropylcellulose) (HPC) 97 % of control | dose: 100.0 mg/kg/injection, schedule: Q04DX003 (ip), vehicle: Klucel (hydroxypropylcellulose) (HPC) 95 % of control | dose: 200.0 mg/kg/injection, schedule: Q01DX009 (ip), vehicle: Klucel (hydroxypropylcellulose) (HPC) 90 % of control | dose: 200.0 mg/kg/injection, schedule: Q04DX003 (ip), vehicle: Klucel (hydroxypropylcellulose) (HPC) 100 % of control | dose: 400.0 mg/kg/injection, schedule: Q01DX009 (ip), vehicle: Klucel (hydroxypropylcellulose) (HPC) 95 % of control | dose: 400.0 mg/kg/injection, schedule: Q04DX003 (ip), vehicle: Klucel (hydroxypropylcellulose) (HPC) 97 % of control

CCOC(=O)NC(NC(=O)OCC)NC(=O)OCC
inactive: [7] 102 % of control | [8] 104 % of control | dose: 400.0 mg/kg/injection, schedule: Q01DX009 (ip), vehicle: saline 104 % of control

O=C(Cc1ccccc1)NC1=C(NCc2ccccc2)C(=O)c2ccccc2C1=O
inactive: [4] 105 % of control | [5] 98 % of control | [6] 96 % of control

CC(=Nc1ccccc1)C1=C(O)C(CC(C)C)NC1=O (centres undefined)
inactive: dose: 50.0 mg/kg/injection, schedule: Q01DX001 (ip), vehicle: carboxymethylcellulose (CMC) 95 % of control | dose: 100.0 mg/kg/injection, schedule: Q01DX001 (ip), vehicle: carboxymethylcellulose (CMC) 104 % of control | dose: 200.0 mg/kg/injection, schedule: Q01DX001 (ip), vehicle: carboxymethylcellulose (CMC) 101 % of control | dose: 400.0 mg/kg/injection, schedule: Q01DX001 (ip), vehicle: carboxymethylcellulose (CMC) 101 % of control

Clc1ccccc1C(N1CCCCC1)N1CCCCC1
inactive: dose: 100.0 mg/kg/injection, schedule: Q04DX002 (ip), vehicle: saline 88 % of control | dose: 200.0 mg/kg/injection, schedule: Q04DX002 (ip), vehicle: saline 92 % of control | dose: 400.0 mg/kg/injection, schedule: Q04DX002 (ip), vehicle: saline 95 % of control

O=S1(=O)CC(O)C(Cl)C1 (centres undefined)
inactive: dose: 50.0 mg/kg/injection, schedule: Q01DX009 (ip), vehicle: saline 101 % of control | [7] 94 % of control | dose: 100.0 mg/kg/injection, schedule: Q04DX003 (ip), vehicle: saline 98 % of control | [8] 94 % of control | dose: 200.0 mg/kg/injection, schedule: Q04DX003 (ip), vehicle: saline 94 % of control

CCCCNC(c1ccccc1)=[N+]1C(C)CCCC1C (centres undefined)
inactive: dose: 3.0 mg/kg/injection, schedule: Q04DX002 (ip), vehicle: saline 108 % of control | dose: 6.0 mg/kg/injection, schedule: Q04DX002 (ip), vehicle: saline 94 % of control | dose: 12.0 mg/kg/injection, schedule: Q04DX002 (ip), vehicle: saline 87 % of control | dose: 12.5 mg/kg/injection, schedule: Q04DX002 (ip), vehicle: saline 107 % of control
